Results as given in patent US8889411B2, “Modulation of stem and progenitor cell differentiation, assays, and uses thereof” (Anthrogenesis Corporation, priority 2002, dated 2014).

What was measured:
[1] = test system: Human Cord Blood MNC Cells; experiment: FACS analysis of cryopreserved and thawed cord blood MNCs after 1 week of culture with cytokines; assay type: cell-based; details: 5 μg in 1.7 μl DMSO, average +/− SD of three wells
Protocol: Cord blood MNCs that had been cryopreserved and thawed using standard methods were isolated by standard Ficoll separation method and cultured in 24 well-plate at 0.5×10^6 cells/ml in 20% FCS-IMDM with cytokines (1L6, KL and G-CSF 10 ng/ml each) in triplicates. The experimental groups were None (cytokines only), DMSO (1.7 μl), ACTIMID™ (5.0 μg in 1.7 μl DMSO), REVIMID™ (5 μg in 1.7 μl DMSO). The cultured cells were harvested and analyzed by FACS staining after 1 week of culture. The data are expressed as an average +/− SD from three independent wells.

[2] = test system: Human Cord Blood CD34+ Cells; experiment: FACS analysis of proliferation and differentiation of cord blood CD34+ cells cultured with IL3, G-CSF and Kit-ligand; assay type: cell-based; details: for CD11b+ Cell Population / CD34+CD38+ Cell Population / CD34+CD38− Cell Population: 7 days
Protocol: CB CD34+ cells were initiated at 4×10^4 cells/ml in a 24-well plate in 20% FCS IMDM (fetal calf serum/Iscove's Modified Dulbecco's Medium) supplemented with cytokines (1 L3, GCSF and Kit-ligand) (R&D Systems, Inc.). Thalidomide (Thal), ACTIMID™ or REVIMID™ were included in the culture at three different concentrations: 5 μg/ml, 1 μg/ml and 0.3 μg/ml. The same volumes of DMSO were used as controls. A negative control without, any compound was also used (indicated by “none” in FIGS. 3-7). Cells were cultured at 37° C. and 5% CO2 in a humidified incubator for 7 days. Cells were then harvested from each well.
The total cell number from each well was determined by counting in a CELL-DYN® 1700 (Abbott Diagnostics) and the expression of CXCR4, CD45, CD34, CD38, CD 1 lb and Gly-A expression was analyzed by FACS (fluorescence-activated cell sorting) staining (FIGS. 3-7).
CB cells from two different donors (CB2276 and CB2417) were cultured, assayed and analyzed separately (Table 1).

[3] = test system: human cord blood CD45+ cells; experiment: Flow cytograms of cord blood CD45+ cells cultured 14 days with IL3, IL6, G-CSF, Epo and KL; assay type: cell-based; details: 5 μg/ml
Protocol: (§1) FIGS. 9(A-F). Flow cytograms. […] Cord blood CD45+ cells were cultured for 14 days with cytokines IL3, IL6, G-CSF, Epo and KL. Percentages indicated on each cytogram indicate the percentage of the cell population expressing a particular combination of markers. A. Control, immunoglobulin (Ig). B. Control, no compound added. C. DMSO (5 μg/ml). D. Thal (5 μg/ml). E. ACTIMID™ (5 μg/ml). F. REVIMID™ (5 μg/ml). X-axis: relative intensity of CD38 (FL1-H) staining. Y-axis: relative intensity of CD19 (FL2-H) staining. See Section 6.3 for details.
as §1, with “10(A-F).” for “9(A-F).”, “CXCR5” for “CD38”, “CD34” for “CD19”

[4] = test system: Cord blood CD34+ hematopoietic progenitor cells; experiment: Colony forming unit (CFU) generation from cord blood CD34+ cells; assay type: cell-based, human; details: IL-3, G-CSF, kit-ligand, vs DMSO
Protocol: FIG. 1. Bar graph indicating results of culturing cord blood CD34+ cells in the presence of Thalidomide (THD), ACTIMID™, and REVIMID™ at concentrations of 1 μg/ml and 10 μg/ml. An equal volume of DMSO was used as a negative control. Hematopoietic colonies of burst forming units-erythroid (BFU-E), colony forming units-erythroid (CFU-E), colony forming units-granulocyte macrophage (CFU-GM) and total numbers of colonies (CFU-Total) were scored under the light microscope at day 14 of culture. Y-axis: numbers of colonies. See Section 6.1 for details.
Cord blood CD34+ hematopoietic progenitor cells were plated in 96 well cultivation dishes at a density of 1000 cells per well in IMDM supplemented with 20% fetal calf serum and cytokines (IL-3, G-CSF and kit-ligand (R&D Systems, Inc.) The cells were exposed to Thalidomide (Thal), ACTIMID™ and REVIMID™, or DMSO (a control compound), and allowed to culture for 6 days. […] After culturing, cells were stained and sorted with a fluorescence activated. cell sorter (FACS). 400 μL of stained cells were harvested and diluted to 1.0 ml with 1% fetal calf serum in phosphate buffered saline (PBS). Cells were counted to determine the effect of modulation of stem cell differentiation.

**Q.** How did the “CD34(%)” value [1] turn out when `Nc1cccc2c1C(=O)N(C1CCC(=O)NC1=O)C2=O` (centres unmarked) [ACTIMID™, 4-(Amino)-2-(2,6-dioxo(3-piperidyl))-isoindoline-1,3-dione] was run?
**A.** 3.31 +/− 0.64%

**Q.** And the “CD34+CD38−(%)” value [1]?
**A.** 1.70 +/− 0.22%

**Q.** And the “CXCR4+CD45+(%)” value [1]?
**A.** 2.9 +/− 0.5%

**Q.** What about the “CXCR4+CD45−(%)” value [1] of the same molecule?
**A.** 4.27 +/− 0.23%

**Q.** And the “Total CD34+ cells” value [1]?
**A.** 7800 +/− 2600

**Q.** And the “Total cells (1 × 10^6)” value [1]?
**A.** 0.223 +/− 0.06 1 × 10^6

**Q.** What about the “up-regulation (increased proliferation) of CD34+ cells” value ([2]; CB2276 and CB2417 cultures) of the same molecule?
**A.** up-regulation

**Q.** What about the “expression of CXCR4” value ([2]; FACS analysis of surface proteins) of the same molecule?
**A.** inhibitory effect

**Q.** And the yield of cells ([2]; IL-3, KL and G-CSF, compared with the DMSO control)?
**A.** slightly higher number of cells

**Q.** And the “effect on the proliferation of CD34+ cells” value ([2]; IL-3, KL and G-CSF, compared with the negative control (none))?
**A.** do not have a significant effect

**Q.** And the “CD11b+ Cell Population” value ([2]; donor CB2276, 0.3 μg/ml)?
**A.** 6.9%

**Q.** What about the “CD34+CD38+ Cell Population” value ([2]; donor CB2276, 0.3 μg/ml) of the same molecule?
**A.** 0.2

**Q.** What about the “CD34+CD38− Cell Population” value ([2]; donor CB2276, 0.3 μg/ml) of the same molecule?
**A.** 5.9

**Q.** What about the “CD11b+ Cell Population” value ([2]; donor CB2276, 1 μg/ml) of the same molecule?
**A.** 3.8%

**Q.** What about the “CD34+CD38+ Cell Population” value ([2]; donor CB2276, 1 μg/ml) of the same molecule?
**A.** 0.2

**Q.** What about the “CD34+CD38− Cell Population” value ([2]; donor CB2276, 1 μg/ml) of the same molecule?
**A.** 15.0

**Q.** And the “CD11b+ Cell Population” value ([2]; donor CB2276, 5 μg/ml)?
**A.** 1.6%

**Q.** And the “CD34+CD38+ Cell Population” value ([2]; donor CB2276, 5 μg/ml)?
**A.** 0.2

**Q.** And the “CD34+CD38− Cell Population” value ([2]; donor CB2276, 5 μg/ml)?
**A.** 17.3

**Q.** What about the “CD11b+ Cell Population” value ([2]; donor CB2417, 0.3 μg/ml) of the same molecule?
**A.** 8.4%

**Q.** What about the “CD34+CD38+ Cell Population” value ([2]; donor CB2417, 0.3 μg/ml) of the same molecule?
**A.** 0.2

**Q.** And the “CD34+CD38− Cell Population” value ([2]; donor CB2417, 0.3 μg/ml)?
**A.** 5.9

**Q.** What about the “CD11b+ Cell Population” value ([2]; donor CB2417, 1 μg/ml) of the same molecule?
**A.** 3.9%

**Q.** And the “CD34+CD38+ Cell Population” value ([2]; donor CB2417, 1 μg/ml)?
**A.** 0.8

**Q.** What about the “CD34+CD38− Cell Population” value ([2]; donor CB2417, 1 μg/ml) of the same molecule?
**A.** 12.0

**Q.** And the “CD11b+ Cell Population” value ([2]; donor CB2417, 5 μg/ml)?
**A.** 2.5%

**Q.** What about the “CD34+CD38+ Cell Population” value ([2]; donor CB2417, 5 μg/ml) of the same molecule?
**A.** 0.1

**Q.** What about the “CD34+CD38− Cell Population” value ([2]; donor CB2417, 5 μg/ml) of the same molecule?
**A.** 14.7

**Q.** And the “CD38 status of the majority of CD34+ and CD34− cells” value ([2]; treated cell populations)?
**A.** CD38−

**Q.** What about the “level of CD11b expression by mean immunofluorescence (MIF)” value ([2]; treated cells) of the same molecule?
**A.** decreased

**Q.** What about the “differentiation into B cells (CD19/CD38 staining)” value ([3]; FIG. 9) of the same molecule?
**A.** minor suppressive effects

**Q.** And the “repression of CXCR5 produced by exposure to DMSO” value ([3]; FIG. 10)?
**A.** overcomes the repression

**Q.** What about the “generation of erythropoietic colonies (BFU-E and CFU-E)” value [4] of the same molecule?
**A.** suppress

**Q.** What about the “generation of leukocyte and platelet forming colonies (CFU-GM)” value [4] of the same molecule?
**A.** augmenting

**Q.** What about the “total colony forming unit (CFU-Total) production” value [4] of the same molecule?
**A.** enhancing
